Reference: patent publication US5616573A, “Glucocorticoids” (Schering Aktiengesellschaft, priority 1993, dated 1997)
Where a SMILES comes first, the peptide text is derived from it. The star is where a group is joined. Methylprednisolone(17-OCOEt) = CCC(=O)O[C@]1(C(=O)CO*)CC[C@H]2[C@@H]3C[C@H](C)C4=CC(=O)C=C[C@]4(C)[C@H]3[C@@H](O)C[C@@]21C; X1 = C[C@H]1C[C@@H]2[C@H]([C@@H](O)C[C@@]3(C)[C@H]2CC[C@]3(O)C(=O)CO*)[C@@]2(C)C=CC(=O)C=C12; X5 = C[C@]12CCC(=O)C=C1CC[C@@H]1[C@@H]2[C@@H](O)C[C@@]2(C)[C@H]1CC[C@]2(O)C(=O)CO*; Fmoc = O=C(OCC1c2ccccc2-c2ccccc21)*; Boc = CC(C)(C)OC(=O)*

Tests used:
[1] = test system: Esterases of Rat Skin; assay: Cleavage in the Homogenate of Normal Rat Skin (unspecific cleavage by esterases of rat skin); assay type: in vitro ADME; settings: percent of hydrolysis rate of 6α-methylprednisolone-17-propionate-21-acetate; approximately 100 μmol/l, pH=7.4, 37° C.
Experimental: (§1) The homogenate of the skin of male rats (0.1 mol/l of phosphate buffer, pH=7.4) is centrifuged for 20 minutes at 10,000 g. The supernatant is adjusted in phosphate buffer to a protein concentration of 3 mg/ml. The test substances in 20 μl of ethanol are added to 1 ml of this homogenate. The final concentration of the corticoid derivatives is approximately 100 μmol/l. The incubation takes place for different periods at 37° C. At the end of incubation, the samples are extracted three times with 3 ml of chloroform. The combined extracts are evaporated to dryness under nitrogen and taken up with 100 μl of ethanol. The ethanolic solutions are mixed with the same volume of water and the saponification products are separated by HPLC (RP 18, acetonitrile/water-gradient, detection 240 nm). The relative hydrolysis rate is indicated in percent of the hydrolysis rate of the 6α-methylprednisolone-17-propionate-21-acetate.

[2] = test system: rat ear; assay: Local antiinflammatory action: modified rat ear test according to Tonelli (croton oil); assay type: in vivo; settings: topical, * = significant (p < 0.05); for Edema [% inhibition]: ear weight, 16 hours after irritant; for Infiltration [% inhibition]: granulocytic infiltrate (myeloperoxidase and leukocyte-elastase), 16 hours
Experimental: The antiinflammatory activity of the corticoid-21-oligopeptide esters is performed in a modified rat ear test according to Tonelli. The modifications are based on changes of irritant solution (4% croton oil, 10% DMSO in ethanol), the type of administration (application of the solution with pipette) and the evaluation of the test 16 hours after administration of the irritant solution. At this time, both the inhibition of the edema by measuring the ear weight and the inhibition of the granulocytic infiltrate by measuring the granulocyte marker myeloperoxidase and leukocyte-elastase in the ear homogenate can be determined. The group size was 6 animals in each case.

[3] = target: T1, Leukocyte Elastase (Homo sapiens, UniProt P08246); assay: Cleavage of Glucocorticoid-21-Oligopeptide Esters by Leukocyte Elastase in the lysate of human neutrophilic granulocytes; assay type: biochemical; settings: lysate of human neutrophilic granulocytes, 10^6 cells per ml, 1 hour at 37° C.; Fmoc-Ala-Ala-Pro-Val-O-MPP is used as reference
T1 construct: also pure human sputum elastase (Elastin Products)
T1 sequence (P08246 30-267): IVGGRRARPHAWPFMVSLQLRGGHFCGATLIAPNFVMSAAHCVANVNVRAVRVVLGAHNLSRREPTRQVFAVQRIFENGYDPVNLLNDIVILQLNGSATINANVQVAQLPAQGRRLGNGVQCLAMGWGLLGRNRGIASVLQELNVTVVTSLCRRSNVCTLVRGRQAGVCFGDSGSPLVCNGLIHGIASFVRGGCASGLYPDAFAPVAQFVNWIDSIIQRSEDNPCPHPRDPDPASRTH
Experimental: as §1
Polymorphonuclear granulocytes are isolated from donor blood. The cells are lysed in a density of 10^6 cells per ml. 1 ml each of the lysate is mixed with 20 μl of ethanolic corticoid solution (5 mmol/l) After 1 hour of incubation at 37° C., the samples are extracted three times with 3 ml of chloroform and worked up as described above for HPLC analysis. The cleavage of the prodrugs according to the invention can be inhibited under these test conditions by the addition of the specific elastase inhibitor MeO-succinyl-Ala-Ala-Pro-Val-chloromethylketone to 90%. Furthermore, the compounds are also hydrolyzed by pure human sputum-elastase (elastin products).

[4] = target: T2, rat glucocorticoid receptor (Rattus norvegicus, UniProt P06536); assay: Binding to the Glucocorticoid Receptor: competitive displacement of tritiated dexamethasone in rat thymus cytosol; settings: quotient of concentrations of test substance and dexamethasone displacing 50% of labeled dexamethasone; 2 hours at 4° C.; lower KF = better binding
T2 sequence (P06536 1-795): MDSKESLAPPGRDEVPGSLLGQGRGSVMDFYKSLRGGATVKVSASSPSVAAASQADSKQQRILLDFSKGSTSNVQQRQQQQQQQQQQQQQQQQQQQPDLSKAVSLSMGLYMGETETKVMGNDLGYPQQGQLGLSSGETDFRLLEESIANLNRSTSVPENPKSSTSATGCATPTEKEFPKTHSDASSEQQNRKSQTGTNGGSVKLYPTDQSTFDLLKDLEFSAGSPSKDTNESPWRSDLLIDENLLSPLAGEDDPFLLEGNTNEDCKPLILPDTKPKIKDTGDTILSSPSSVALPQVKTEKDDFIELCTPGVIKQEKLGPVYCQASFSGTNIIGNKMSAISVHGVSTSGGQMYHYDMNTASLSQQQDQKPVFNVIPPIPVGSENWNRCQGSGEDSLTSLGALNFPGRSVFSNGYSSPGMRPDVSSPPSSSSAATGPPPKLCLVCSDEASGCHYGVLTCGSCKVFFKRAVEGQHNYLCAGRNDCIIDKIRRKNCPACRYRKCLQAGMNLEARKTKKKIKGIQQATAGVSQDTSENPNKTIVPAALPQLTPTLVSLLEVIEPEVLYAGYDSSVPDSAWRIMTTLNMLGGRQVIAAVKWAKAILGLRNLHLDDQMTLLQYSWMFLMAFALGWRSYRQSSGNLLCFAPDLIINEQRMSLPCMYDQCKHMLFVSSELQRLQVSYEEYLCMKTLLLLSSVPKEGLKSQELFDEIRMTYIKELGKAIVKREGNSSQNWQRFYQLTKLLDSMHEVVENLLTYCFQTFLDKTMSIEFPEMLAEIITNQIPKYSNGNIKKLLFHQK
Experimental: The binding of the substances according to the invention to the rat glucocorticoid receptor is determined by competitive displacement of tritiated dexamethasone from the receptor binding. Different concentrations of the glucocorticoid esters are incubated for 2 hours at 4° C. in the presence of a constant concentration of tritium-labeled dexamethasone with rat thymus cytosol. After the incubation time, the non-protein-bound steroids are adsorbed on activated carbon and the activated carbon is centrifuged off. The radioactivity in the supernatant is used as a measurement for the amount of receptor-bound dexamethasone.
From the measurements, the concentrations of the respective corticoid derivative are calculated, which are necessary to displace 50% of the labeled dexamethasone from the receptor binding. Competition factor (KF) is the quotient of these calculated concentrations for the test substance and that of dexamethasone.

[5] = concentration 0.003 (unit not given)
[6] = concentration 0.03 (unit not given)
[7] = concentration 0.3 (unit not given)

## CCC(=O)O[C@]1(C(=O)COC(=O)[C@@H](NC(=O)[C@@H]2CCCN2C(=O)[C@H](C)NC(=O)[C@H](C)NC(=O)OC(C)(C)C)C(C)C)CC[C@H]2[C@@H]3C[C@H](C)C4=CC(=O)C=C[C@]4(C)[C@H]3[C@@H](O)C[C@@]21C [Example 3, N-(N-(N-(N-(1,1-Dimethylethoxycarbonyl)-L-alanyl)-L-alanyl)-L -prolyl)-L-valine [11β,21-dihydroxy-3,20-dioxo-6α-methyl-17-propionyloxy-pregna-1,4-dien-21-yl] ester] (Boc-AAPV-{Methylprednisolone(17-OCOEt)})
[1]
  Relative Hydrolysis Rate [%]: 50%
[2]; [5]
  Edema [% inhibition]: 17%
  Infiltration [% inhibition]: 11%
[2]; [6]
  Edema [% inhibition]: 51%
  Infiltration [% inhibition]: 43%
[2]; [7]
  Edema [% inhibition]: 81%
  Infiltration [% inhibition]: 77%
[3]
  Relative Hydrolysis Rate [%]: 160-190%

## CCC(=O)O[C@]1(C(=O)COC(=O)[C@@H](NC(=O)[C@@H]2CCCN2C(=O)[C@H](C)NC(=O)[C@H](C)NC(=O)OCC2c3ccccc3-c3ccccc32)C(C)C)CC[C@H]2[C@@H]3C[C@H](C)C4=CC(=O)C=C[C@]4(C)[C@H]3[C@@H](O)C[C@@]21C [Example 4, N-(N-(N-(N-(9H-Fluoren-9-ylmethoxycarbonyl)-L-alanyl)-L-alanyl) -L-prolyl)-L-valine [11β,21-dihydroxy-3,20-dioxo-6α-methyl-17-propionyloxy-pregna-1,4-dien-21-yl] ester] (Fmoc-AAPV-{Methylprednisolone(17-OCOEt)})
[1]
  Relative Hydrolysis Rate [%]: 4%
[2]; [5]
  Edema [% inhibition]: 30%
  Infiltration [% inhibition]: 16%
[2]; [6]
  Edema [% inhibition]: 48%
  Infiltration [% inhibition]: 42%
[2]; [7]
  Edema [% inhibition]: 78%
  Infiltration [% inhibition]: 66%
[3]
  Relative Hydrolysis Rate [%]: 100%

## CC(C)[C@H](NC(=O)[C@@H]1CCCN1C(=O)[C@H](C)NC(=O)[C@H](C)NC(=O)OCC1c2ccccc2-c2ccccc21)C(=O)OCC(=O)[C@@]1(O)CC[C@H]2[C@@H]3C[C@H](C)C4=CC(=O)C=C[C@]4(C)[C@H]3[C@@H](O)C[C@@]21C [Example 22] (Fmoc-AAPV-X1)
[1]
  Relative Hydrolysis Rate [%]: 6%
[3]
  Relative Hydrolysis Rate [%]: 370%

## CC(C)[C@H](NC(=O)[C@@H]1CCCN1C(=O)[C@H](C)NC(=O)[C@H](C)NC(=O)OCC1c2ccccc2-c2ccccc21)C(=O)OCC(=O)[C@@]1(O)CC[C@H]2[C@@H]3CCC4=CC(=O)CC[C@]4(C)[C@H]3[C@@H](O)C[C@@]21C [Example 29, N-(N-(N-(N-(9H-Fluoren-9-yl-methoxycarbonyl)-L-alanyl)-L-alanyl) -L-prolyl)-L-valine [11β,17,21-trihydroxy-3,20-dioxo-pregn-4-en-21-yl] ester] (Fmoc-AAPV-X5)
[4]
  Competition Factor [KF]: k.k. [n.c.]

## CCCCC(=O)O[C@]1(C(=O)COC(=O)[C@@H](NC(=O)[C@@H]2CCCN2C(=O)[C@H](C)NC(=O)[C@H](C)NC(=O)OCC2c3ccccc3-c3ccccc32)C(C)C)[C@@H](C)C[C@H]2[C@@H]3CCC4=CC(=O)C=C[C@]4(C)[C@@]3(F)[C@@H](O)C[C@@]21C [Example 39, N-(N-(N-(N-(9H-Fluoren-9-yl-methoxycarbonyl)-L-alanyl)-L-alanyl) -L-prolyl)-L-valine [9α-fluoro-11β,21-dihydroxy-16β-methyl-3,20-dioxo-17-valeroyloxy-pregna-1,4-dien-21-yl] ester]
[1]
  Relative Hydrolysis Rate [%]: 0%
[3]
  Relative Hydrolysis Rate [%]: 42%
